In US12551573B2, “Compositions and methods for the targeting of PCSK9” (Scribe Therapeutics Inc., priority 2022, dated 2026):

Tested on: human PCSK9 locus
Assay: Secreted PCSK9 by ELISA (normalized to total cell count) in Huh7 cells transfected with mRNA and gRNA
Type: cell-based
Conditions: paired with LTRP5-ADD-ZIM3 mRNA; for Secreted PCSK9 / Percent reduction in PCSK9 secretion / Average percent reduction in PCSK9 secretion: Huh7 cells, 6 days post-transfection; for Secreted PCSK9: normalized to total cell count; for Percent reduction in PCSK9 secretion: relative to non-targeting gRNA control; for Average percent reduction in PCSK9 secretion: averaged from the two doses
Protocol: To assess PCSK9 secretion, seeded Huh7 cells were transfected with mRNA encoding a catalytically-active CasX 676, dXR1, or LTRP5-ADD-ZIM3 and a gRNA with scaffold 316 and spacer targeting either the B2M or PCSK9 locus. Media supernatant was harvested at 6, 18, 36, and 87 days post-transfection to assess level of PCSK9 secretion by ELISA. Levels of PCSK9 secretion were normalized to total cell count. As an additional control, PCSK9 secretion was also measured in the media supernatant harvested from wells containing untreated, naïve cells.
The following three human hepatocyte cancer cell lines were used in this experiment: HepG2 cells, Hep3B cells, and Huh7 cells. ˜15,000 cells of each cell line were seeded per well; the next day, seeded cells were transfected with mRNA encoding a catalytically-active CasX 676, dXR1, or LTRP5-ADD-ZIM3 and a gRNA with scaffold 316 and spacer targeting either the B2M or PCSK9 locus (see Table 23 for specific spacers and sequences). Media supernatant was harvested at 4 days post-transfection to assess level of PCSK9 secretion by ELISA, and levels of PCSK9 secretion were normalized to total cell count and illustrated in FIGS. 11A-11C. Culturing of treated Huh7 cells continued, and media supernatant was harvested at 14 and 27 days post-transfection for measuring PCSK9 secretion by ELISA. As an additional experimental control, PCSK9 secretion was also measured in the media supernatant harvested from wells containing untreated, naïve cells.
To assess PCSK9 secretion, seeded Huh7 cells were co-transfected with mRNA encoding for LTRP5-ADD-ZIM3 and a gRNA with scaffold 316 and spacer targeting the PCSK9 locus using Lipofectamine™ 3000. Two doses of total RNA input at a 2:1 mass ratio of mRNA to gRNA were used for screening: 50 ng mRNA: 25 ng gRNA and 25 ng mRNA: 12.5 ng gRNA. Media supernatant was harvested at 6 days post-transfection to assess level of PCSK9 secretion by ELISA (Table 74). Levels of PCSK9 secretion were normalized to total cell count. As an additional control, PCSK9 secretion was also measured in the media supernatant harvested from cells transfected with mRNA encoding for mScarlet.

Row | Substance | Secreted PCSK9 (25 ng mRNA:12.5 ng gRNA) | Percent reduction in PCSK9 secretion (25 ng mRNA:12.5 ng gRNA) | Secreted PCSK9 (50 ng mRNA:25 ng gRNA) | Percent reduction in PCSK9 secretion (50 ng mRNA:25 ng gRNA) | Average percent reduction in PCSK9 secretion | repression of PCSK9 secretion by spacer (Huh7, scaffold 316, days 4, 14, 27)
1 | GCCAGGCCGUCCUCCUCGGA (listed as RNA, chemistry not given here) [spacer 6.4, Exon 1] | 73.05 ng/mL | 2.54% | 54.83 ng/mL | 33.35% | 15.41% | –
2 | GCCGGGCCCACCUUUUCAGU (listed as RNA, chemistry not given here) [spacer 6.148, Promoter] | 44.77 ng/mL | 37.16% | 71.46 ng/mL | 13.15% | 25.15% | –
3 | GCCUCGCCCUCCCCAAACAG (listed as RNA, chemistry not given here) [spacer 6.152, Promoter] | 57.43 ng/mL | 19.39% | 36.95 ng/mL | 55.09% | 37.24% | –
4 | GCGCGCCCCUUCACGCGCCC (listed as RNA, chemistry not given here) [spacer 6.159, Exon 1] | 80.84 ng/mL | 13.47% | 53.15 ng/mL | 35.4% | 10.97% | –
5 | GCUCCUGCACAGUCCUCCCC (listed as RNA, chemistry not given here) [spacer 6.161, Exon 1] | 53.16 ng/mL | 25.38% | 29.55 ng/mL | 64.08% | 44.73% | –
6 | GCUGAAACAGAUGGAAUACU (listed as RNA, chemistry not given here) [spacer 6.172, Intron 1] | 59.31 ng/mL | 16.75% | 44.44 ng/mL | 45.99% | 31.37% | –
7 | GGAAAGCUGAGCUUGUGCCU (listed as RNA, chemistry not given here) [spacer 6.135, Promoter] | 44.59 ng/mL | 37.42% | 25.66 ng/mL | 68.82% | 53.12% | –
8 | GGAAGGGCUGUCGAUACUGG (listed as RNA, chemistry not given here) [spacer 6.121, Promoter] | 37.13 ng/mL | 47.89% | 28.33 ng/mL | 65.57% | 56.73% | –
9 | GGAGCAGGGCGCGUGAAGGG (listed as RNA, chemistry not given here) [spacer 6.158, Exon 1] | 31.72 ng/mL | 55.48% | 9.39 ng/mL | 88.59% | 72.03% | –
10 | GGGUCUGAGCCUGGAGGAGU (listed as RNA, chemistry not given here) [spacer 6.157, Exon 1] | 32.4 ng/mL | 54.53% | 12.32 ng/mL | 85.03% | 69.78% | most effective repression of PCSK9 secretion
11 | GUGCUCGGGUGCUUCGGCCA (listed as RNA, chemistry not given here) [spacer 6.5, Exon 1] | 76.37 ng/mL | 7.19% | 67.08 ng/mL | 18.47% | 5.64% | –
12 | GUGGGAAGGUUCGCGGGGUU (listed as RNA, chemistry not given here) [spacer 6.168, Intron 1] | 50.96 ng/mL | 28.47% | 19.1 ng/mL | 76.78% | 52.62% | –
13 | GUGGGCAGCGAGGAGUCCAC (listed as RNA, chemistry not given here) [spacer 6.144, Promoter] | 29 ng/mL | 59.29% | 23.42 ng/mL | 71.53% | 65.41% | –
14 | GUGUUUCCUGGGUCCACCUU (listed as RNA, chemistry not given here) [spacer 6.147, Promoter] | 37.43 ng/mL | 47.46% | 53.6 ng/mL | 34.85% | 41.15% | –
15 | GUUAAUGUUUAAUCAGAUAG (listed as RNA, chemistry not given here) [spacer 6.153, Promoter] | 86.58 ng/mL | 21.52% | 73.23 ng/mL | 10.99% | 5.27% | –
16 | Non-targeting (guide CGAGACGTAATTACGTCTCG; chemistry not given here) | 71.24 ng/mL | 0% | 82.28 ng/mL | 0% | 0% | –
17 | TG-06-002 (guide ACCGCUGCGCCAAGGUGCGG; listed as RNA, chemistry not given here) | 83.15 ng/mL | 16.71% | 81.95 ng/mL | 0.4% | 8.16% | –
18 | TG-06-249 (guide AAACCAAAUCGGAACCCACU; listed as RNA, chemistry not given here) | 82.36 ng/mL | 15.61% | 87.36 ng/mL | 6.18% | 10.89% | –
19 | TG-06-250 (guide GAUUUGGUUUGGAAAACAUG; listed as RNA, chemistry not given here) | 80.42 ng/mL | 12.87% | 86.92 ng/mL | 5.64% | 9.26% | –
20 | TG-06-251 (guide CUCCAGGCCCUCCACCCUCC; listed as RNA, chemistry not given here) | 44.62 ng/mL | 37.37% | 36.8 ng/mL | 55.28% | 46.32% | –
21 | TG-06-342 (guide AAUUACAGGCAACAGGAAGG; listed as RNA, chemistry not given here) | 75.23 ng/mL | 5.6% | 51.55 ng/mL | 37.34% | 15.87% | –
22 | TG-06-343 (guide CCCCAUGUAAGAGAGGAAGU; listed as RNA, chemistry not given here) | 75.55 ng/mL | 6.04% | 62.8 ng/mL | 23.67% | 8.82% | –
23 | TG-06-344 (guide CAGUUUCUGCCUCGCCGCGG; listed as RNA, chemistry not given here) | 76.43 ng/mL | 7.28% | 82.29 ng/mL | 0.01% | 3.64% | –
24 | TG-06-345 (guide GCCUCGCCGCGGCACAGGUG; listed as RNA, chemistry not given here) | 85.68 ng/mL | 20.26% | 81.22 ng/mL | 1.28% | 9.49% | –
